Laboratory results published in article PMC6249039 (Journal of medicinal chemistry, 2018).

Experiments:
[1] = test system: influenza; format: cell-based
[2] = molecular target: HIV IN (Human immunodeficiency virus type 1 group M subtype B, UniProt P04585); format: biochemical; details: 200 μM
[3] = molecular target: human carbonic anhydrase II (hCAII) (Homo sapiens, UniProt P00918); experiment: Cross-inhibition screen, human carbonic anhydrase II; format: biochemical; details: 200 μM
[4] = molecular target: T1, HDAC-6 (Homo sapiens, UniProt Q9UBN7); experiment: Cross-inhibition screen, HDAC-6; format: biochemical; details: 200 μM
T1 sequence (Q9UBN7 1-1215): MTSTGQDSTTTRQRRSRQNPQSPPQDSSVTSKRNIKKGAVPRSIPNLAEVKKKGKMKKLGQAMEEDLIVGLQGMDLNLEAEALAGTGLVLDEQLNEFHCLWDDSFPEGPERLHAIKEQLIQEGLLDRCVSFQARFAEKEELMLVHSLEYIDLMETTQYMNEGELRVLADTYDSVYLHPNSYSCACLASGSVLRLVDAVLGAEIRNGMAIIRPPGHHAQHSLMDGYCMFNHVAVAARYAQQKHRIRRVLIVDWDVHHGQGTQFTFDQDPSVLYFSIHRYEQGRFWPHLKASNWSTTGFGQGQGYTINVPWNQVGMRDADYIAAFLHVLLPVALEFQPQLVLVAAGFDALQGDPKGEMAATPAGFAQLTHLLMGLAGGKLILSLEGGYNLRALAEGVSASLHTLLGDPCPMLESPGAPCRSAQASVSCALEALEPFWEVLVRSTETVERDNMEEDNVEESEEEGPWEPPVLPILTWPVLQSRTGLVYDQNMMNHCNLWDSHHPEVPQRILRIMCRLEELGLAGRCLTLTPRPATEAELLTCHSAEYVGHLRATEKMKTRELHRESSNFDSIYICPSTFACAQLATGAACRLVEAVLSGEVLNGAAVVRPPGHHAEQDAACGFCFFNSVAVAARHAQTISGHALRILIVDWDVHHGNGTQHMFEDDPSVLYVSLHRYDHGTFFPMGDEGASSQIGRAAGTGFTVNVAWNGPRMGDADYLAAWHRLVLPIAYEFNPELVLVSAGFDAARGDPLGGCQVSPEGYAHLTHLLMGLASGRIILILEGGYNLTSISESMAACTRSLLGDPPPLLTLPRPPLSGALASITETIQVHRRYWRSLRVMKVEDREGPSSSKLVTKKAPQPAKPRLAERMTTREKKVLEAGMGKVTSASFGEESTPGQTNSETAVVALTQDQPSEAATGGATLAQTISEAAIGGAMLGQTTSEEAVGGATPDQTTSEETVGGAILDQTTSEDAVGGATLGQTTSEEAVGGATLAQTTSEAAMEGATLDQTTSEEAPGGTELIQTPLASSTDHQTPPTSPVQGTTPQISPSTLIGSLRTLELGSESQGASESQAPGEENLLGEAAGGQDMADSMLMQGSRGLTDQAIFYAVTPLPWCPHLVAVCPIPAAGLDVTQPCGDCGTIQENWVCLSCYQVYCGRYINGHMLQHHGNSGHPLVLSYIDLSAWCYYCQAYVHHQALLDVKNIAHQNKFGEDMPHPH

[5] = cited from earlier work

SMILES	Antiviral activity in cell-based assays [1]	further results
O=c1cc[nH]c(-c2nnn[nH]2)c1O [Compound 27]	little antiviral activity	
Cc1cc(=S)c(O)c(C(=O)O)o1 [Compound 22]	little antiviral activity	
O=C(O)c1occc(=O)c1O [Compound 3]	little antiviral activity	
Cc1cc(=O)c(O)c(C(=O)O)o1 [Compound 1, 3-Hydroxy-6-methyl-4-oxo-4H-pyran-2-carboxylic acid]	little antiviral activity	Percent inhibition, HIV IN 3'-processing activity [2]: no inhibition; Percent inhibition, hCAII [3]: no inhibition; Percent inhibition, HDAC-6 [4]: no inhibition
Cc1cc(=O)c(O)c(C(=O)O)[nH]1 [Compound 17, 3-Hydroxy-6-methyl-4-oxo-1,4-dihydropyridine-2-carboxylic acid]	little antiviral activity	
Cc1cc(C(=O)O)c(O)c(=O)[nH]1 [Compound 18]	little antiviral activity	
Cc1cc(O)c(=O)c(O)cc1C(=O)O [Compound 33, 5-Methyl-2,7-dihydroxytropolone-4-carboxylic acid]	little antiviral activity	
O=C(O)c1cccc(=O)n1O [Compound 5]		pKa reported ([5]; N-hydroxy donor oxygen): 7.51
O=c1c(O)ccccc1O [Compound 32, α-hydroxytropolone]	little antiviral activity	
O=C(O)c1cccc(O)c1O [Compound 7]		pKa reported, first value ([5]; phenolic oxygen): 10.30; pKa reported, second value ([5]; phenolic oxygen): 13.48
